Measured values taken from patent publication US10519134B2, “Pyrazole compounds and methods of making and using same” (Lundbeck La Jolla Research Center, Inc., priority 2015, dated 2019).

Experiments:
[1] = biological target: T1, MAGL (Mus musculus, UniProt O35678); assay: Mouse brain proteomes from inhibitor treated mice (oral gavage, sacrificed 4 h after administration); assay type: in vivo; conditions: read-out: MAGL % inh. 5 mg/kg
T1 construct: Proteomes (mouse brain membrane fraction or cell lysates); from tissue; host or cells: mouse brain membrane fraction (or cell lysates)
T1 sequence (O35678 1-303): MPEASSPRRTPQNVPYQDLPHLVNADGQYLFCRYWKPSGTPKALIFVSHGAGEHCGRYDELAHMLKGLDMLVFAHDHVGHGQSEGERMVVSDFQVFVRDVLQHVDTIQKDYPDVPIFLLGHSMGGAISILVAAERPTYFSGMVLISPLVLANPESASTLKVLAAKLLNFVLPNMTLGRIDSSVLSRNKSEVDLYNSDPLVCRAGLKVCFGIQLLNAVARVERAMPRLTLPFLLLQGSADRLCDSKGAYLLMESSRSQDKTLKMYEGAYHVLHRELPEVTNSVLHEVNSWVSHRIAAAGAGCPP
Description: Compounds are tested to assess their MAGL and other serine hydrolase activity using the following in vitro and in vivo assays.
Preparation of Mouse Brain Proteomes from Inhibitor Treated Mice.
Inhibitors were administered to wild-type C57Bl/6J by oral gavage in a vehicle of polyethylene glycol. Each animal was sacrificed 4 h following administration and brain proteomes were prepared and analyzed according to previously established methods (See Niphakis, M. J., et al. (2011) ACS Chem. Neurosci. and Long, J. Z., et al. Nat. Chem. Biol. 5:37-44)

[2] = biological target: T1, MAGL; assay: In vitro competitive activity-based protein profiling (mouse), MAGL gel band; assay type: biochemical; conditions: for IC50: mouse; for inhibition at 1 µM: read-out: MAGL % inh. 1 μM
Summary of the method: (§1)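 Mouse brain membrane proteome or cell lysate (1.0 mg/mL total protein) was preincubated with varying inhibitor concentrations for 30 min at 37 °C, then labelled for 30 min at 37 °C with FP-Rh or HT-01 (50 μM stock in DMSO). Activity was read as fluorescent band intensity after SDS-PAGE.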

[3] = biological target: T2, FAAH (Mus musculus, UniProt O08914); assay: In vitro competitive activity-based protein profiling (mouse), FAAH gel band; assay type: biochemical; conditions: for IC50: mouse; for inhibition at 1 µM: read-out: FAAH % inh. 1 μM
T2 construct: Proteomes (mouse brain membrane fraction or cell lysates); from tissue; host or cells: mouse brain membrane fraction (or cell lysates)
T2 sequence (O08914 1-579): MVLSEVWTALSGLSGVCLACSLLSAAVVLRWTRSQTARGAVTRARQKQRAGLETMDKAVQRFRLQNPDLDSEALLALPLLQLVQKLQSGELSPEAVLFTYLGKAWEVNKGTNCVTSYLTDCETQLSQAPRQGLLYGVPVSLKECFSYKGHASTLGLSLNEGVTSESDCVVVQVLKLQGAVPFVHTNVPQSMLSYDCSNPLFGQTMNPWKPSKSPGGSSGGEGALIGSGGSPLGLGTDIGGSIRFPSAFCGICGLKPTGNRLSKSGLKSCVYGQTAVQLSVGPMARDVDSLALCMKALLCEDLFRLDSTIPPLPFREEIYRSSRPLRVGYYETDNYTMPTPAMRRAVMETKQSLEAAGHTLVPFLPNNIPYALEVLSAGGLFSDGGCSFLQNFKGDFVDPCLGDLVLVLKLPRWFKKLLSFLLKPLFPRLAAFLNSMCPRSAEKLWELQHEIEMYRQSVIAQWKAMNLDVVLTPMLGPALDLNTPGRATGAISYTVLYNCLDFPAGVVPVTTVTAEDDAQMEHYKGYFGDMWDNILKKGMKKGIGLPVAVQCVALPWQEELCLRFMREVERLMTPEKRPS
Summary of the method: as §1

inhibition at 5 mg/kg [1] | IC50 [2] | inhibition at 1 µM [2] | IC50 [3] | inhibition at 1 µM [3] | SMILES
0 to 25% | ≤ 0.1 µM | ≥ 75% | 1 to 10 µM | 0 to 25% | CC(=O)Nc1ccn(C(=O)N2CCC3(CCCN3Cc3ccc(Cl)cc3N3CC4CCC(C3)O4)CC2)n1 [Example 34, N-(1-(1-(2-(8-oxa-3-azabicyclo[3.2.1]octan-3-yl)-4-chlorobenzyl)-1,8-diazaspiro[4.5]decane-8-carbonyl)-1H-pyrazol-3-yl)acetamide]
0 to 25% | ≤ 0.1 µM | ≥ 75% | 1 to 10 µM | 0 to 25% | CC(=O)Nc1ccn(C(=O)N2CCC3(CCCN3Cc3ccc(Cl)cc3N3CCC4(CC3)CCN(S(C)(=O)=O)C4)CC2)n1 [Example 37, N-(1-(1-(4-chloro-2-(2-(methylsulfonyl)-2,8-diazaspiro[4.5]decan-8-yl)benzyl)-1,8-diazaspiro[4.5]decane-8-carbonyl)-1H-pyrazol-3-yl)acetamide]
0 to 25% | ≤ 0.1 µM | ≥ 75% | 1 to 10 µM | 0 to 25% | CC(=O)Nc1ccn(C(=O)N2CCC3(CCCN3Cc3ccc(Cl)cc3N3CCC4(C3)CN(S(C)(=O)=O)C4)CC2)n1 [Example 38, N-(1-(1-(4-chloro-2-(2-(methylsulfonyl)-2,6-diazaspiro[3.4]octan-6-yl)benzyl)-1,8-diazaspiro[4.5]decane-8-carbonyl)-1H-pyrazol-3-yl)acetamide]
≥ 75% | ≤ 0.1 µM | ≥ 75% | 1 to 10 µM | 0 to 25% | CC(=O)Nc1ccn(C(=O)N2CCN(Cc3ccc(C(F)(F)F)cc3N3CCCCC3)CC2)n1 [Example 39, N-(1-(4-(2-(piperidin-1-yl)-4-(trifluoromethyl)benzyl)piperazine-1-carbonyl)-1H-pyrazol-3-yl)acetamide]
25 to 50% | ≤ 0.1 µM | ≥ 75% | 1 to 10 µM | 0 to 25% | CC(=O)Nc1ccn(C(=O)N2CCN(Cc3ccc(C(F)(F)F)cc3N3CC4CCC(C3)O4)CC2)n1 [Example 40, N-(1-(4-(2-(8-oxa-3-azabicyclo[3.2.1]octan-3-yl)-4-(trifluoromethyl)benzyl)piperazine-1-carbonyl)-1H-pyrazol-3-yl)acetamide]
0 to 25% | ≤ 0.1 µM | ≥ 75% | 1 to 10 µM | 0 to 25% | CC(=O)Nc1ccn(C(=O)N2CCN(Cc3ccc(C(F)(F)F)cc3N3CCN(S(C)(=O)=O)CC3)CC2)n1 [Example 41, N-(1-(4-(2-(4-(methylsulfonyl)piperazin-1-yl)-4-(trifluoromethyl)benzyl)piperazine-1-carbonyl)-1H-pyrazol-3-yl)acetamide]
0 to 25% | ≤ 0.1 µM | ≥ 75% | 1 to 10 µM | 0 to 25% | CC(=O)Nc1ccn(C(=O)N2CCN(Cc3ccc(C(F)(F)F)cc3N3CCN(C(C)=O)CC3)CC2)n1 [Example 42, N-(1-(4-(2-(4-acetylpiperazin-1-yl)-4-(trifluoromethyl)benzyl)piperazine-1-carbonyl)-1H-pyrazol-3-yl)acetamide]
0 to 25% | ≤ 0.1 µM | ≥ 75% | 1 to 10 µM | 0 to 25% | CC(=O)Nc1ccn(C(=O)N2CCN(Cc3ccc(C(F)(F)F)cc3N3CCC4(CC3)CCN(S(C)(=O)=O)C4)CC2)n1 [Example 43, N-(1-(4-(2-(2-(methylsulfonyl)-2,8-diazaspiro[4.5]decan-8-yl)-4-(trifluoromethyl)benzyl)piperazine-1-carbonyl)-1H-pyrazol-3-yl)acetamide]
0 to 25% | ≤ 0.1 µM | ≥ 75% | 1 to 10 µM | 0 to 25% | CC(=O)Nc1ccn(C(=O)N2CCN(Cc3ccc(C(F)(F)F)cc3N3CCC4(C3)CN(S(C)(=O)=O)C4)CC2)n1 [Example 44, N-(1-(4-(2-(2-(methylsulfonyl)-2,6-diazaspiro[3.4]octan-6-yl)-4-(trifluoromethyl)benzyl)piperazine-1-carbonyl)-1H-pyrazol-3-yl)acetamide]
25 to 50% | ≤ 0.1 µM | ≥ 75% | 1 to 10 µM | 0 to 25% | CC(=O)Nc1ccn(C(=O)N2CCN(Cc3ccc(C(F)(F)F)cc3N3CCN(C4CC4)CC3)CC2)n1 [Example 47, N-(1-(4-(2-(4-cyclopropylpiperazin-1-yl)-4-(trifluoromethyl)benzyl)piperazine-1-carbonyl)-1H-pyrazol-3-yl)acetamide]
0 to 25% | ≤ 0.1 µM | ≥ 75% | 1 to 10 µM | 0 to 25% | CCN1CCN(c2cc(C(F)(F)F)ccc2CN2CCN(C(=O)n3ccc(NC(C)=O)n3)CC2)CC1 [Example 48, N-(1-(4-(2-(4-ethylpiperazin-1-yl)-4-(trifluoromethyl)benzyl)piperazine-1-carbonyl)-1H-pyrazol-3-yl)acetamide]
0 to 25% | ≤ 0.1 µM | ≥ 75% | 1 to 10 µM | 0 to 25% | CC(=O)Nc1ccn(C(=O)N2CCN(Cc3ccc(C(F)(F)F)cc3N3CC4COCC4C3)CC2)n1 (centres unmarked) [Example 49, N-(1-(4-(2-(dihydro-1H-furo[3,4-c]pyrrol-5(3H,6H,6aH)-yl)-4-(trifluoromethyl)benzyl)piperazine-1-carbonyl)-1H-pyrazol-3-yl)acetamide]
≥ 75% | ≤ 0.1 µM | ≥ 75% | 1 to 10 µM | 0 to 25% | CC(=O)Nc1ccn(C(=O)N2CCN(Cc3ccc(Cl)cc3N3CCCCC3)CC2)n1 [Example 50, N-(1-(4-(4-chloro-2-(piperidin-1-yl)benzyl)piperazine-1-carbonyl)-1H-pyrazol-3-yl)acetamide]
25 to 50% | ≤ 0.1 µM | ≥ 75% | 1 to 10 µM | 0 to 25% | CC(=O)Nc1ccn(C(=O)N2CCN(Cc3ccc(Cl)cc3N3CC4CCC(C3)O4)CC2)n1 [Example 51, N-(1-(4-(2-(8-oxa-3-azabicyclo[3.2.1]octan-3-yl)-4-chlorobenzyl)piperazine-1-carbonyl)-1H-pyrazol-3-yl)acetamide]
0 to 25% | ≤ 0.1 µM | ≥ 75% | 1 to 10 µM | 0 to 25% | CC(=O)Nc1ccn(C(=O)N2CCN(Cc3ccc(Cl)cc3N3CCN(C(C)=O)CC3)CC2)n1 [Example 53, N-(1-(4-(2-(4-acetylpiperazin-1-yl)-4-chlorobenzyl)piperazine-1-carbonyl)-1H-pyrazol-3-yl)acetamide]
0 to 25% | ≤ 0.1 µM | ≥ 75% | 1 to 10 µM | 0 to 25% | CC(=O)Nc1ccn(C(=O)N2CCN(Cc3ccc(Cl)cc3N3CCC4(CC3)CCN(S(C)(=O)=O)C4)CC2)n1 [Example 54, N-(1-(4-(4-chloro-2-(2-(methylsulfonyl)-2,8-diazaspiro[4.5]decan-8-yl)benzyl)piperazine-1-carbonyl)-1H-pyrazol-3-yl)acetamide]
